Source: article PMC12444516, “Broad Substrate Specificity and High Catalytic Activity of Sphingomonadaceae PhoK-Type Phosphatases Implicated in Flame-Retardant Degradation” (ACS Omega, 2025)
Where two headings read alike, the source gives them in different places.

How the values were obtained:
No-PhoK [1] = tested on: T1, No-PhoK; assay type: biochemical, Novosphingobium sp. EMRT-2; settings: read-out: p-nitrophenyl phosphate (1) / K m
T1 construct: predicted Sec/SPI signal peptide

Sb-PhoK [2] = tested on: T2, Sb-PhoK; assay type: biochemical, Sphingobium sp. TCM1; settings: read-out: p-nitrophenyl phosphate (1) / K m
T2 construct: predicted Sec/SPI signal peptide; ~2 Zn per protein

SmTDK1-PhoK [3] = tested on: T3, SmTDK1-PhoK; assay type: biochemical, Sphingomonas sp. TDK1; settings: read-out: p-nitrophenyl phosphate (1) / K m
T3 construct: synthetic codon-optimised gene in pET29a with native stop codon, untagged; E. coli BL21(DE3); ammonium sulfate, Resource Q flow-through, S200; predicted Sec/SPI signal peptide

St-PhoK [4] = tested on: T4, St-PhoK; assay type: biochemical, Sphingopyxis terrae; settings: read-out: p-nitrophenyl phosphate (1) / K m
T4 construct: predicted Sec/SPI signal peptide; also printed Sp-PhoK

SmSRS2-PhoK [5] = tested on: T5, SmSRS2-PhoK; assay: UV/vis, p-nitrophenol release at […] nm, initial rates; assay type: biochemical, Sphingomonas sp. SRS2; settings: 50 mM Ches pH 9.0; read-out: p-nitrophenyl phosphate (1) / K m
T5 construct: predicted Sec/SPI signal peptide; from a smaller PhoK cluster outside the main Sphingomonadaceae cluster

SmTDK1-PhoK [6] = settings: read-out: phenyl phosphate (2) / K m
No-PhoK [7] = settings: read-out: phenyl phosphate (2) / K m
Sb-PhoK [8] = settings: read-out: phenyl phosphate (2) / K m
St-PhoK [9] = settings: read-out: phenyl phosphate (2) / K m
SmSRS2-PhoK [10] = tested on: T5, SmSRS2-PhoK; assay: UV/vis, phenol release at […] nm, initial rates; assay type: biochemical, Sphingomonas sp. SRS2; settings: 50 mM Ches pH 9.0; read-out: phenyl phosphate (2) / K m
purified protein [11] = substrate: O=P(O)(O)Oc1ccccc1; assay: purified protein; assay type: biochemical, Sphingomonas sp.; settings: 50 mM Ches pH 9.0
purified protein [12] = substrate: O=[N+]([O-])c1ccc(OP(=O)(O)O)cc1; assay: purified protein; settings: 50 mM Ches pH 9.0

## O=[N+]([O-])c1ccc(OP(=O)(O)O)cc1 [compound 1, p-nitrophenyl phosphate]
No-PhoK [1]
  Km: 153 ± 5 µM
Sb-PhoK [2]
  Km: 69 ± 2 µM
SmTDK1-PhoK [3]
  Km: 450 ± 10 µM
St-PhoK [4]
  Km: 78 ± 3 µM
SmSRS2-PhoK [5]
  Km: 88 ± 4 µM

## O=P(O)(O)Oc1ccccc1 [compound 2, phenyl phosphate]
SmTDK1-PhoK [6]
  Km: 600 ± 20 µM
No-PhoK [7]
  Km: 300 ± 20 µM
Sb-PhoK [8]
  Km: 650 ± 30 µM
St-PhoK [9]
  Km: 81 ± 5 µM
SmSRS2-PhoK [10]
  Km: 104 ± 5 µM

B1: Sm-PhoK (Sphingomonas sp.) (protein)
chain: QSPAPAAAPAPAARSIAATPPKLIVAISVDQFSADLFSEYRQYYTGGLKRLTSEGAVFPRGYQSHAATETCPGHSTILTGSRPSRTGIIANNWFDLDAKREDKNLYCAEDESQPGSSSDKYEASPLHLKVPTLGGRMKAANPATRVVSVAGKDRAAIMMGGATADQVWWLGGPQGYVSYKGVAPTPLVTQVNQAFAQRLAQPNPGFELPAQCVSKDFPVQAGNRTVGTGRFARDAGDYKGFRISPEQDAMTLAFAAAAIENMQLGKQAQTDIISIGLSATDYVGHTFGTEGTESCIQVDRLDTELGAFFDKLDKDGIDYVVVLTADHGGHDLPERHRMNAMPMEQRVDMALTPKALNATIAEKAGLPGKKVIWSDGPSGDIYYDKGLTAAQRARVETEALKYLRAHPQVQTVFTKAEIAATPSPSGPPESWSLIQEARASFYPSRSGDLLLLLKPRVMSIPEQAVMGSVATHGSPWDTDRRVPILFWRKGMQHFEQPLGVETVDILPSLAALIKLPVPKDQIDGRCLDLVAGKDDSCAGQ
notes: predicted Sec/SPI signal peptide; binuclear Zn site, nucleophile T89
Purified protein [11]
  Km: 600 ± 20 µM
  kcat: 1100 ± 10 s⁻¹
  kcat/Km: 1.84e+06 ± 60000 M⁻¹ s⁻¹
Purified protein [12]
  Km: 174 ± 4 µM
